Assay results as given in patent US9955691B2, “Macrocyclic picolinamides as fungicides” (DOW AGROSCIENCES LLC, priority 2014, dated 2018).
Read-outs that look alike come from different tables or passages of the source.

How the values were obtained:
Assay type in all cases: in vivo
[1] = tested on: Mycosphaerella graminicola; Anamorph: Septoria tritici; test: Fungicidal activity: Leaf Blotch of Wheat (SEPTTR); conditions: Zymoseptoria tritici, wheat leaf blotch; for pest or weed control at 100 µg/mL: High Volume (100 ppm); for pest or weed control at 121.5 g/ha: Low Volume (121.5 g/H)
Outline: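 Compounds were dissolved in acetone, diluted with nine volumes of water containing 110 ppm Triton X-100, and sprayed to run-off on first-leaf Yuma wheat seedlings inoculated with Septoria tritici spores before or after treatment. Plants were held in a dew chamber, then a 20° C. greenhouse. Percent control was derived from disease severity relative to untreated plants.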

Alternaria solani = test: Fungicidal activity: Tomato Early Blight (ALTESO); conditions: 100 ppm, 1 DP (1 Day Protectant)
Description: Technical grades of materials were dissolved in acetone, which were then mixed with nine volumes of water containing 110 ppm Triton X-100. The fungicide solutions were applied onto wheat seedlings using an automated booth sprayer to run-off. All sprayed plants were allowed to air dry prior to further handling. All fungicides were evaluated using the aforementioned method for their activity vs. all target diseases, unless stated otherwise. Wheat leaf blotch and brown rust activity were also evaluated using track spray applications, in which case the fungicides were formulated as EC formulations, containing 0.1% Trycol 5941 in the spray solutions. Wheat plants (variety Yuma) were grown from seed in a greenhouse in 50% mineral soil/50% soil-less Metro mix until the first leaf was fully emerged, with 7-10 seedlings per pot. These plants were inoculated with an aqueous spore suspension of Septoria tritici either prior to or after fungicide treatments. After inoculation the plants were kept in 100% relative humidity (one day in a dark dew chamber followed by two to three days in a lighted dew chamber at 20° C.) to permit spores to germinate and infect the leaf. The plants were then transferred to a greenhouse set at 20° C. for disease to develop. When disease symptoms were fully expressed on the 1st leaves of untreated plants, infection levels were assessed on a scale of 0 to 100 percent disease severity. Percent disease control was calculated using the ratio of disease severity on treated plants relative to untreated plants. Evaluation of Fungicidal Activity: Tomato Early Blight (Alternaria solani; Bayer Code […]) Tomato plants (variety Outdoor Girl) were propagated in soil-less Metro mix, with each pot having one plant, and used when 12 to 14 days old. Test plants were inoculated with an aqueous spore suspension of Alternaria solani 24 hr after fungicide treatments. After inoculation the plants were kept in 100% relative humidity (one day in a dark dew chamber followed by two to three days in a lighted dew chamber at 20° C.) to permit spores to germinate and infect the leaf. The plants were then transferred to a growth room at 22° C. for disease to develop. Fungicide formulation, application and disease assessment on the sprayed leaves followed the procedures as described in the Example A.

[2] = tested on: Blumeria graminis f. sp. hordei; test: Fungicidal activity: Barley Powdery Mildew (ERYSGH); conditions: 100 ppm, 1 DP (1 Day Protectant)
Description: Technical grades of materials were dissolved in acetone, which were then mixed with nine volumes of water containing 110 ppm Triton X-100. The fungicide solutions were applied onto wheat seedlings using an automated booth sprayer to run-off. All sprayed plants were allowed to air dry prior to further handling. All fungicides were evaluated using the aforementioned method for their activity vs. all target diseases, unless stated otherwise. Wheat leaf blotch and brown rust activity were also evaluated using track spray applications, in which case the fungicides were formulated as EC formulations, containing 0.1% Trycol 5941 in the spray solutions. Wheat plants (variety Yuma) were grown from seed in a greenhouse in 50% mineral soil/50% soil-less Metro mix until the first leaf was fully emerged, with 7-10 seedlings per pot. These plants were inoculated with an aqueous spore suspension of Septoria tritici either prior to or after fungicide treatments. After inoculation the plants were kept in 100% relative humidity (one day in a dark dew chamber followed by two to three days in a lighted dew chamber at 20° C.) to permit spores to germinate and infect the leaf. The plants were then transferred to a greenhouse set at 20° C. for disease to develop. When disease symptoms were fully expressed on the 1st leaves of untreated plants, infection levels were assessed on a scale of 0 to 100 percent disease severity. Percent disease control was calculated using the ratio of disease severity on treated plants relative to untreated plants. Evaluation of Fungicidal Activity: Barley Powdery Mildew (Blumeria graminis f. Sp. hordei; Synonym: Erysiphe graminis f. Sp. hordei; Bayer Code […]) Barley seedlings (variety Harrington) were propagated in soil-less Metro mix, with each pot having 8 to 12 plants, and used in the test when first leaf was fully emerged. Test plants were inoculated by dusting with infected stock plants 24 hr after fungicide treatments. After inoculation the plants were kept in a greenhouse set at 20° C. for disease to develop. Fungicide formulation, application and disease assessment on the sprayed leaves followed the procedures as described in the Example A.

[3] = 24 h, 1 Day Protectant, read-out: SEPTTR 1 DP disease control
[4] = 72 h, 3 Day Curative, read-out: SEPTTR 3 DC disease control

Row | SMILES | pest or weed control at 100 µg/mL [1, 3] [%] | pest or weed control at 121.5 g/ha [1, 3] [%] | pest or weed control at 100 µg/mL [1, 4] [%] | pest or weed control at 121.5 g/ha [1, 4] [%] | ALTESO disease control rating (Alternaria solani) | ERYSGH disease control rating [2]
1 | COc1ccnc(C(=O)N[C@H]2COC[C@H](Cc3ccccc3)[C@@H](Cc3ccccc3)[C@H](C)OC2=O)c1OCOC(C)=O [Cmpd. 3, ((2-(((3S,7R,8R,9S)-7,8-dibenzyl-9-methyl-2-oxo-1,5-dioxonan-3-yl)carbamoyl)-4-methoxypyridin-3-yl)oxy)methyl acetate] | > 70 | > 70 | > 70 | > 70 | A (>70) | A (>70)
2 | CCCC[C@@H]1[C@@H](Cc2ccccc2)COC[C@H](NC(=O)c2nccc(OC)c2OCOC(=O)C(C)C)C(=O)O[C@H]1C [compound 1] | > 70 | > 70 | > 70 | > 70 | A (>70) | A (>70)
3 | COc1ccnc(C(=O)N[C@H]2COC[C@H](c3ccccc3)[C@@H](c3ccccc3)[C@H](C)OC2=O)c1OCOC(C)=O [compound 7] | > 70 | > 70 | > 70 | > 70 | A (>70) | A (>70)
4 | CCCC[C@@H]1[C@@H](Cc2ccc(C(F)(F)F)cc2)COC[C@H](NC(=O)c2nccc(OC)c2OCOC(C)=O)C(=O)O[C@H]1C [compound 16] | – | > 70 | – | > 70 | A (>70) | A (>70)
5 | COc1ccnc(C(=O)N[C@H]2COC[C@H](Cc3ccccc3)[C@@H](Cc3ccccc3)[C@H](C)OC2=O)c1OC(C)=O [compound 27] | – | > 70 | – | > 70 | A (>70) | B (≤70)
6 | COc1ccnc(C(=O)N[C@H]2COC[C@H](CC3CC3)[C@@H](c3ccccc3)[C@H](C)OC2=O)c1OC(C)=O [compound 100] | – | > 70 | – | > 70 | A (>70) | A (>70)
